Reference: publication doi:10.1101/2020.11.24.395954v2 (biorxiv, 2021)

What was measured:
PpKAI2L-K = molecular target: T1, PpKAI2L-K (Physcomitrium patens, UniProt A9S299); details: apparent Kd
T1 sequence (A9S299 1-270): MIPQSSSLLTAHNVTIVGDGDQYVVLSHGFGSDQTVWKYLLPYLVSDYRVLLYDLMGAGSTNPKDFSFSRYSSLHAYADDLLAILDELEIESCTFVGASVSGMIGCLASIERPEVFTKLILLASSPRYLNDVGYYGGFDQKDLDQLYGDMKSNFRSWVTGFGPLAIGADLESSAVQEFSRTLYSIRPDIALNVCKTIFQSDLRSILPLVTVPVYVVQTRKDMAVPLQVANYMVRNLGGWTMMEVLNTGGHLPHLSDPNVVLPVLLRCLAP

AtKAI2 = molecular target: T2, AtKAI2 (Arabidopsis thaliana, UniProt Q9SZU7); experiment: biochemical
T2 sequence (Q9SZU7 1-270): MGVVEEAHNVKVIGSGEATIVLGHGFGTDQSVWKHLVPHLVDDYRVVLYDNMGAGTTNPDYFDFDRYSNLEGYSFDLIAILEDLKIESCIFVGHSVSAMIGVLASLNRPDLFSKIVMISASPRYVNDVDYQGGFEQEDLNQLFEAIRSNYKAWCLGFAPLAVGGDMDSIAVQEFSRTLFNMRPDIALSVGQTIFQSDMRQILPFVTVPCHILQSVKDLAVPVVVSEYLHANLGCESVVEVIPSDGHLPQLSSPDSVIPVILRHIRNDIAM

PpKAI2L-E = molecular target: T3, PpKAI2L-E (Physcomitrium patens, UniProt A9ST85); details: apparent Kd
T3 sequence (A9ST85 1-270): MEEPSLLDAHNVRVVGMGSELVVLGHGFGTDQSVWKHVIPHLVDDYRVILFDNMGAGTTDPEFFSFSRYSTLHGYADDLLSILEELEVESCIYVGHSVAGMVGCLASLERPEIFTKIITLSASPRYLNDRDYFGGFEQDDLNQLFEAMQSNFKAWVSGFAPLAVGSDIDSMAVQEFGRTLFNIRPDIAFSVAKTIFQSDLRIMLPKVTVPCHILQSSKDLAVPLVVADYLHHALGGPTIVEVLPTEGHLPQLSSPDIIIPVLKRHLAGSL

PpKAI2L-D = molecular target: T4, PpKAI2L-D (Physcomitrium patens, UniProt A9SSF6); details: apparent Kd
T4 sequence (A9SSF6 1-271): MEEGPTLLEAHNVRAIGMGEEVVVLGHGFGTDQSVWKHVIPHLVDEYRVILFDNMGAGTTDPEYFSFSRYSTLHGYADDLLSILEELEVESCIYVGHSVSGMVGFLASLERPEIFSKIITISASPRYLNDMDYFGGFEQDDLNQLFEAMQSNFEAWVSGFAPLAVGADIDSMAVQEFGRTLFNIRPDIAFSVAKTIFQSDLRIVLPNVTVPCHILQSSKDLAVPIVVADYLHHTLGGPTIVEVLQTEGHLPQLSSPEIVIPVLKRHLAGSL

AtD14 = AtD14 (Arabidopsis thaliana, UniProt Q9SQR3); experiment: biochemical
purified protein = substrate: CC(=O)Oc1ccc([N+](=O)[O-])cc1; experiment: purified protein

AtD14, sequence (Q9SQR3 whole entry): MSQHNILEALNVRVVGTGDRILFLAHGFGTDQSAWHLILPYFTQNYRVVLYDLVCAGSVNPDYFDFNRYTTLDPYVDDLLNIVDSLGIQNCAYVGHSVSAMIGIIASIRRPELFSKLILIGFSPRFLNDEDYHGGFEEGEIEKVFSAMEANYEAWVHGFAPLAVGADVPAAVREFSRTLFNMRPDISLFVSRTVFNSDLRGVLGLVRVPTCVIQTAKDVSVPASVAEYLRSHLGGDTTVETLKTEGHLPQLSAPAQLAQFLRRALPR

| Molecule | Kd (PpKAI2L-K) [µM] | Kd (AtKAI2) [µM] | Kd (PpKAI2L-E) [µM] | Kd (PpKAI2L-D) [µM] | Kd (AtD14) [µM] | Km (purified protein) [µM] | kcat (purified protein) [s⁻¹] |
| --- | --- | --- | --- | --- | --- | --- | --- |
| CC1=C[C@@H](O/C=C2/C(=O)O[C@H]3c4ccccc4C[C@@H]23)OC1=O [(-)-GR24] | 41 | 45 | 39 | 92 | 94 |  |  |
| CC1=C[C@H](O/C=C2/C(=O)O[C@@H]3c4ccccc4C[C@H]23)OC1=O [(+)-GR24] | 107 |  |  |  | 22.8 ± 9.27 |  |  |
| PpKAI2L-H (Physcomitrium patens) (protein) MPSPLLSTHNVTVLGNRSDPVVVLGHGLGTDQSVWKYTVPSLVNQNFQVVLYDTMGAGSTETSDFNFKRYSSLQGHVDDLLAILDELEIENCVYVGHSMSGMIGVLASLERPDLFRKLILLSASPRYLNDSSYYGGFEQEDLDQLFSSMRSNFSAWVSGFATAAVGTDIHDEAVQEFSSTFISMRPDVALRTSQFVFQSDFRSILSEVTVPCHIVQSRKDIAVPIEVAEYLRCNLGGWTSVDILQTDGHLPQLSCPELVVPVLLHCIDS |  |  |  |  |  | 2381 ± 644 | 34.02 ± 5.83 |
| AtKAI2 (Arabidopsis thaliana) (protein) MGVVEEAHNVKVIGSGEATIVLGHGFGTDQSVWKHLVPHLVDDYRVVLYDNMGAGTTNPDYFDFDRYSNLEGYSFDLIAILEDLKIESCIFVGHSVSAMIGVLASLNRPDLFSKIVMISASPRYVNDVDYQGGFEQEDLNQLFEAIRSNYKAWCLGFAPLAVGGDMDSIAVQEFSRTLFNMRPDIALSVGQTIFQSDMRQILPFVTVPCHILQSVKDLAVPVVVSEYLHANLGCESVVEVIPSDGHLPQLSSPDSVIPVILRHIRNDIAM |  |  |  |  |  | 610.1 ± 36.69 | 2.647 ± 0.06558 |
